Reference: ChEMBL document CHEMBL5303304, “EUbOPEN Chemogenomics Library - IncuCyte” (2023)
Several values for one entry are separate records, joined by “and”; a condition that tells them apart may be missing. Equal entries are not always repeated.

How the values were obtained:
Type in all cases: toxicity, cell-based
Fibroblast = test: Incucyte cell viability with human fibroblast; settings: 10 µM, compound concentration 10 uM
HEK-293T = test: Incucyte cell viability with HEK293T; settings: human, 10 µM, compound concentration 10 uM
U2OS = test: Incucyte cell viability with U2OS; settings: human, 10 µM, compound concentration 10 uM
Also: unitless GR value; below 1 slowed growth and below 0 cell loss.

Row | Compound | Growth Rate (Fibroblast; 6 h, replicate number 2) | Growth Rate (Fibroblast; 12 h, replicate number 2) | Growth Rate (HEK-293T; 0 h, replicate number 2) | Growth Rate (HEK-293T; 6 h, replicate number 2) | Growth Rate (HEK-293T; 12 h, replicate number 2) | Growth Rate (U2OS; 6 h, replicate number 2) | Growth Rate (U2OS; 12 h, replicate number 1) | Growth Rate (U2OS; 12 h, replicate number 2) | Growth Rate (U2OS; 18 h, replicate number 1) | Growth Rate (U2OS; 18 h, replicate number 2) | Growth Rate (U2OS; 24 h, replicate number 1) | Growth Rate (U2OS; 24 h, replicate number 2) | Growth Rate (Fibroblast; 12 h, replicate number 1) | Growth Rate (Fibroblast; 24 h, replicate number 1) | Growth Rate (Fibroblast; 24 h, replicate number 2) | Growth Rate (HEK-293T; 18 h, replicate number 1) | Growth Rate (HEK-293T; 18 h, replicate number 2) | Growth Rate (HEK-293T; 24 h, replicate number 1) | Growth Rate (HEK-293T; 24 h, replicate number 2) | Growth Rate (HEK-293T; 12 h, replicate number 1) | further results
1 | CCNC(=O)c1ccc2c(c1)NC(=O)/C2=C(\Nc1ccc(CN(C)C)cc1)c1ccccc1 | 0.09 | 0.8 | -1 | 0.16 | 0.83 | 1 | 0.63 and 0.95 | 0.85 | 0.75 and 0.9 | 0.8 | 0.84 and 0.87 | 0.83 | – | – | – | – | – | – | – | – | Growth Rate (Fibroblast; 0 h, replicate number 2): 0.87; Growth Rate (U2OS; 0 h, replicate number 2): 0.96; Growth Rate (U2OS; 6 h, replicate number 1): 0.67 and 0.82
2 | N[C@@H]1CCCN(c2c(/C=C3\SC(=O)NC3=O)cccc2-c2ccccc2)C1 | 0.19 | 0.34 | -0.99 | 0.84 | 0.79 | – | 0.97 | – | – | – | – | – | 0.71 | 1 | 0.53 | 0.8 | 0.84 | 0.92 | 0.97 | – | Growth Rate (Fibroblast; 18 h, replicate number 1): 0.83; Growth Rate (Fibroblast; 18 h, replicate number 2): 0.55; Growth Rate (U2OS; 0 h, replicate number 1): -0.41
3 | Cn1cc(NC(=O)c2ccc3nc4n(c3c2)CCCNC4=O)nc1C(=O)NC1CCCC1 | 0.57 | 0.76 | 0.71 | 0.99 | 0.88 | – | 0.82 | 0.97 | 0.95 | 0.99 | 0.91 | – | 0.67 | 0.79 | 0.92 | 0.64 | 0.85 | 0.81 | 0.9 | 0.69 | Growth Rate (Fibroblast; 0 h, replicate number 1): 0.88; Growth Rate (Fibroblast; 0 h, replicate number 2): 0.62; Growth Rate (Fibroblast; 18 h, replicate number 1): 0.91; Growth Rate (Fibroblast; 18 h, replicate number 2): 0.78; Growth Rate (U2OS; 0 h, replicate number 1): 0.36
4 | CN(C)[C@H]1CCc2nc(NC(=O)c3cccc(Cn4cc(-c5ccc(C#N)cc5)cn4)c3)sc2C1.O=C(O)C(F)(F)F | – | – | -0.96 | 0.68 | 0.74 | – | – | – | – | 0.89 | – | 0.75 | – | – | 0.57 | 0.59 | 0.68 | 0.51 | 0.62 | 0.52 | Growth Rate (Fibroblast; 0 h, replicate number 1): -0.59; Growth Rate (Fibroblast; 0 h, replicate number 2): -0.64; Growth Rate (HEK-293T; 6 h, replicate number 1): 0.98
5 | Cl.NC(=O)c1ccccc1Nc1nc(-c2ccc(N3CCOCC3)cc2)cc2ncccc12 | -0.47 | -0.21 | -1 | -0.55 | -0.36 | 0.39 | 0.57 | 0.32 | 0.62 | 0.25 | 0.66 | 0.24 | 0.05 | 0.07 | -0.07 | -0.2 | -0.24 | -0.11 | – | -0.4 | Growth Rate (Fibroblast; 6 h, replicate number 1): -0.14; Growth Rate (Fibroblast; 18 h, replicate number 1): 0.13; Growth Rate (Fibroblast; 18 h, replicate number 2): -0.14; Growth Rate (HEK-293T; 6 h, replicate number 1): -0.65; Growth Rate (U2OS; 0 h, replicate number 2): 0.86; Growth Rate (U2OS; 6 h, replicate number 1): 0.76
6 | CC#CC(=O)N1CCN(c2nc(-c3ccc(Oc4ccccc4)cc3)c(C(N)=O)s2)CC1 | 0.18 | 0.22 | -0.85 | 0.66 | 0.74 | 0.82 | 0.55 | 0.92 | 0.66 | 0.94 | 0.69 | 0.94 | 0.5 | 0.32 | 0.44 | 0.61 | 0.6 | 0.66 | 0.64 | 0.43 | Growth Rate (Fibroblast; 0 h, replicate number 1): 0.51; Growth Rate (Fibroblast; 0 h, replicate number 2): 0.75; Growth Rate (Fibroblast; 6 h, replicate number 1): 0.87; Growth Rate (Fibroblast; 18 h, replicate number 1): 0.52; Growth Rate (Fibroblast; 18 h, replicate number 2): 0.4; Growth Rate (HEK-293T; 6 h, replicate number 1): 0.41; Growth Rate (U2OS; 0 h, replicate number 1): 0.94; Growth Rate (U2OS; 6 h, replicate number 1): 0.5
7 | COC1(C#Cc2ccc(Cl)c(-c3ncc4c(n3)-c3sc(NC(C)=O)nc3CC4)c2)CCN(C)CC1 | -0.27 | -0.12 | -1 | -0.37 | -0.19 | 0.62 | 0.91 | 0.66 | 0.64 | – | 0.78 | 0.62 | 0.03 | -0.11 | -0.15 | -0.17 | -0.1 | -0.05 | 0.05 | -0.29 | Growth Rate (Fibroblast; 6 h, replicate number 1): 0.02; Growth Rate (Fibroblast; 18 h, replicate number 1): -0.03; Growth Rate (Fibroblast; 18 h, replicate number 2): -0.14; Growth Rate (HEK-293T; 6 h, replicate number 1): -0.41; Growth Rate (U2OS; 0 h, replicate number 1): 0.64; Growth Rate (U2OS; 0 h, replicate number 2): 0.98; Growth Rate (U2OS; 6 h, replicate number 1): 0.79
8 | Cc1cc(-c2cc3ncccc3c(OC[C@H]3CCCNC3)n2)ccc1N(C)C.O=C(O)C(F)(F)F | – | – | -1 | -0.53 | -0.44 | 0.47 | 0.77 | 0.26 | 0.28 | 0.19 | 0.47 | 0.16 | – | 0.79 | 0.85 | -0.34 | -0.28 | -0.25 | -0.18 | -0.47 | Growth Rate (Fibroblast; 0 h, replicate number 1): -0.49; Growth Rate (Fibroblast; 0 h, replicate number 2): -0.85; Growth Rate (HEK-293T; 6 h, replicate number 1): -0.57
9 | COc1cc2ncnc(Nc3ccc(F)c(Cl)c3)c2cc1OCCN(C)C[C@H](C)O | 0.44 | -0.12 | -0.98 | 0.69 | 0.49 | 0.36 | 0.68 | 0.35 | 0.77 | 0.44 | 0.92 | 0.42 | -0.2 | -0.21 | 0 | 0.65 | 0.69 | 0.65 | 0.73 | 0.61 | Growth Rate (Fibroblast; 0 h, replicate number 2): 0; Growth Rate (Fibroblast; 6 h, replicate number 1): -0.42; Growth Rate (Fibroblast; 18 h, replicate number 1): -0.23; Growth Rate (Fibroblast; 18 h, replicate number 2): -0.05; Growth Rate (HEK-293T; 6 h, replicate number 1): 0.36; Growth Rate (U2OS; 0 h, replicate number 2): 0.24; Growth Rate (U2OS; 6 h, replicate number 1): 0.7
10 | CC(C)NC(=O)[C@H]1CCC[C@H]1Nc1nc(Nc2ccc(CN(C)C)cc2)ncc1Br.Cl | -0.82 | -0.59 | -1 | -0.5 | -0.36 | 0.17 | -0.31 | 0.15 | 0.3 | 0.24 | 0.32 | 0.2 | -0.42 | -0.38 | -0.46 | -0.04 | -0.19 | 0.2 | 0.01 | -0.3 | Growth Rate (Fibroblast; 6 h, replicate number 1): -0.53; Growth Rate (Fibroblast; 18 h, replicate number 1): -0.37; Growth Rate (Fibroblast; 18 h, replicate number 2): -0.51; Growth Rate (HEK-293T; 6 h, replicate number 1): -0.59; Growth Rate (U2OS; 0 h, replicate number 1): -0.38; Growth Rate (U2OS; 0 h, replicate number 2): 0.74; Growth Rate (U2OS; 6 h, replicate number 1): 0.07
11 | CC(C)NC(=O)[C@H]1CCC[C@H]1Nc1nc(Nc2ccc(C(=O)N(C)C3CCN(C)CC3)cc2)ncc1Cl | -0.29 | – | -1 | – | – | 0.48 | – | 0.53 and 0.52 | 0.54 and 0.76 | 0.6 and 0.8 | 0.63 | 0.61 and 0.9 | 0.11 and 0.25 | 0.54 | 0.47 | 0.71 and 0.79 | 0.56 | 0.85 | 0.69 and 0.88 | 0.62 and 0.41 | Growth Rate (Fibroblast; 0 h, replicate number 1): -1; Growth Rate (Fibroblast; 18 h, replicate number 1): 0.31 and 0.66; Growth Rate (Fibroblast; 18 h, replicate number 2): 0.24 and 0.59; Growth Rate (U2OS; 0 h, replicate number 1): 0.59; Growth Rate (U2OS; 0 h, replicate number 2): 0.92
